Broadly, the viability is the share of living cells, or the viability signal relative to a control.

Six compounds from US9439909B2, “Compositions and methods for sensitizing a neoplastic cell to radiation” (The Broad Institute, Inc., priority 2013, dated 2016) can be followed below.

Bounds are passed on as bounds.

The test system of one series is HCC15 cells. The series can be described thus: Clonogenic survival, HCC15 cells. Type of series: cell-based, human. The note with it: HCC15 (KEAP1 mutant), drug 24 hours before radiation. The procedure:
(§1) Lung SqCC cell lines from the Cancer Cell Line Encyclopedia (CCLE) were authenticated per CCLE protocol (14) and grown in recommended media supplemented with 10% fetal bovine serum (Benchmark, Calif.) and 100 U/mL Penicillin, 100 μg/mL of Streptomycin, and 292 μg/mL L-Glutamine (Corning, N.Y.). All cultures were maintained at 37° C. in a humidified 5% CO2 atmosphere and tested to ensure absence of Mycoplasma. Plates were treated with 0 Gy (no radiation) or with 1-10 Gy of γ-radiation delivered at 0.91 Gy/min with a ^137Cs source using a GammaCell 40 Exactor (Best Theratronics; Ontario, Canada).
(§2) Cells were plated at appropriate dilutions, irradiated, and incubated for 10-14 days for colony formation. For chemical radiosensitization measurements, drug was added 24 hours prior to irradiation. Colonies were fixed in a solution of acetic acid and methanol 1:3 (v/v) and stained with 0.5% (w/v) crystal violet as previously described (15). A colony was defined to consist of 50 cells or greater. Colonies were counted digitally using ImageJ software as described (16). Integration of survival as a function of dose, or area under the curve, was calculated using Prism, GraphPad Software (La Jolla, Calif.).

A further series has as its system SQ-1 cells. Briefly: Clonogenic survival, SQ-1 cells. It counts as cell-based, human. The note with it: SQ-1 (NFE2L2 and KEAP1 wild type), drug 24 hours before radiation. The procedure: as §1, §2
Series [1] deals with NRF2 protein. Briefly: Immunoblot of NRF2 protein level in LC-1/SQSF cells. It counts as cell-based, human. The note with it: for expression of endogenous mutant NRF2 compared with control shNTC: Doxycycline induction 24 hours. The procedure:
(§3) Anti-NRF2 antibody (ab31163) was from Abcam (Cambridge, Mass.) (17). NVP-BKM120 and TGX-221 was from Selleck (Houston, Tex.). LY 294002 was from Cell Signaling Technology (Beverly, Mass.).
(§4) Construction of the retroviral expression vector of short hairpin RNA (shRNA) was carried out as described (18). The shRNA-targeted sequences were as follows: NRF2-1 shRNA, […] (SEQ ID NO: 1); NRF2-2 shRNA, […] (SEQ ID NO: 2). The control vector contains nontargeting shRNA sequence. The entry vectors were recombined with pLKO-Tet-ON-puro by LR reactions (Invitrogen, Carlsbad, Calif.), in accordance with the manufacturer's instructions. After infection (multiplicity of infection >1), cells were selected and maintained in the presence of 1 μg/ml puromycin.

The nature of series [2]: Cellular viability of LC-1/SQSF cells after incubation with PI3K inhibitors. The settings on record: human, LC-1/SQSF cells stably expressing hNQO1-ARE-luc.
Method: (§5) To test this, LC-1/SQSF cells were generated that stably express hNQO1-ARE-luc, containing cis-acting antioxidant response regulatory elements in the 5′-flanking region of NAD(P)H:quinone oxidoreductase (NQO1) (19), a gene induced by NRF2. Luciferase activity was measured in LC-1/SQSF, hNQO1-ARE-luc cells after incubation with LY 294002, NVP-BKM120, or TGX-221. […] Cellular viability was measured after incubation with LY 294002, NVP-BKM120, or TGX-221.
Series [3] relates to LC-1/SQSF cells. Described as above. The note with it: LC-1/SQSF, 48 hours.
Method: as §5
In the next series the test system is A549 cells. The series can be described thus: Clonogenic survival, A549 cells. The note with it: A549, drug 24 hours before radiation. Type of series: cell-based, human. The procedure: as §1, §2
For another series, the system named is NRF2 activity. Briefly: hNQO1-ARE-luc luciferase reporter assay in LC-1/SQSF cells. It counts as cell-based, human. The settings on record: 24 hours. The procedure: LC-1/SQSF, hNQO1-ARE-luc cells were produced as follows. hQR41-ARE sequence (19) and firefly luciferase-PEST sequence (Promega, WI) was cloned into plenti6/BLOCK-iT-DEST lentivirus backbone (Invitrogen, NY) at the restriction sites of NcoI and Hind III. The engineered region was sequence verified and matched 100% of the expected sequences. The plasmid was stably infected to the LC-1/SQSF cell line, selected and maintained in 5 μg/ml Blasticidin in the recommended media.
For orientation: A reporter such as luciferase makes a cellular process visible.

Series [4] has as its system LC-1/SQSF cells. The series can be described thus: Clonogenic survival, LC-1/SQSF cells. It counts as cell-based, human. The procedure: as §1, §2
The next series concerns RERF-LC-AI cells. Briefly: Clonogenic survival, RERF-LC-AI cells. It counts as cell-based, human. The procedure:
as §1, §2

The test system of series [5] is NRF2 protein. The series can be described thus: Immunoblot of NRF2 protein level in RERF-LC-AI cells. It counts as cell-based, human. The note with it: for NRF2 protein level / expression of endogenous NRF2 compared with control shNTC: RERF-LC-AI, Doxycycline induction 24 hours. The procedure: as §3, §4
In series [6] the test system is LC-1/SQSF cells.
Method: as §5

On to `Nc1cc(C(F)(F)F)c(-c2cc(N3CCOCC3)nc(N3CCOCC3)n2)cn1` [NVP-BKM120, 5-(2,6-dimorpholinopyrimidin-4-yl)-4-(trifluoromethyl)pyridin-2-amine], for which the “clonogenic survival with drug and radiation compared to control (0 Gy)” value was “synergistic decrement in clonogenic survival” in the series on HCC15 cells; “synergistic decrement in clonogenic survival” in the series with A549 cells; “synergistic decrement in clonogenic survival” in the series on LC-1/SQSF cells [4] (LC-1/SQSF (NFE2L2 mutant), drug 24 hours before radiation). Further, the “synergy between drug and radiation, clonogenic survival” value in the series on SQ-1 cells was “significantly less synergy”; in the series on RERF-LC-AI cells (RERF-LC-AI (NFE2L2 and KEAP1 wild type), drug 24 hours before radiation), “significantly less synergy”. Further, the “decrement in NRF2 protein level” value in the series with NRF2 protein [1] (24 hours) is “significant decrement in NRF2 protein level”. In [2], this compound gave a viability at 24 h greater than 90%. Also, the “decrement in cellular viability” value in the series with LC-1/SQSF cells [3] was “mirrored the effect on NRF2 activity”. Moreover, in the series with NRF2 activity, the “decrement in NRF2 activity (luciferase activity)” value is recorded as “significant decrement in NRF2 activity”.

For “shNRF2-2: lentiviral-inducible NRF2-targeted shRNA, target sequence GCTCCTACTGTGATGTGAAAT (SEQ ID NO: 2) (the letters are possibly those of the target site)”, the “expression of endogenous mutant NRF2 compared with control shNTC” value in the series with NRF2 protein [1] was “significantly reduced”. In addition, in the series with LC-1/SQSF cells [4] (LC-1/SQSF, no radiation), the “clonogenic capacity after lentiviral-induction” value is recorded as “significantly diminished clonogenic capacity”. In addition, the “NRF2 protein level / expression of endogenous NRF2 compared with control shNTC” value in the series on NRF2 protein [5] is recorded as “significantly reduced”. In addition, the “radiation sensitivity, clonogenic survival” value with RERF-LC-AI cells (RERF-LC-AI, 2, 4, 6 Gy after Doxycycline 24 hours) is given as “did not result in any observable decrease”. Moreover, in the series on RERF-LC-AI cells (RERF-LC-AI, no radiation), the clonogenic capacity result is reported as “did not result in any observable decrease”.

For the compound “shNRF2-1: lentiviral-inducible NRF2-targeted shRNA, target sequence AGAGCAAGATTTAGATCATTT (SEQ ID NO: 1) (the letters are possibly those of the target site)”, the “expression of endogenous mutant NRF2 compared with control shNTC” value in the series with NRF2 protein [1] is reported as “significantly reduced”. The “sensitivity to radiation versus control shNTC cells, clonogenic survival” value in the series on LC-1/SQSF cells [4] (LC-1/SQSF, 2, 4, 6 Gy after Doxycycline 24 hours) is “more sensitive to radiation”. In the series with NRF2 protein [5], the “NRF2 protein level / expression of endogenous NRF2 compared with control shNTC” value was “minimal affect”.

As for `CC(C)(C)c1cc(O)ccc1O` [tBHQ, tert-Butylhydroquinone], the “NRF2 stabilization (NRF2 protein level)” value in the series with NRF2 protein [5] (RERF-LC-AI cells, -/+ tBHQ) is “NRF2 stabilization”.

Turning to `O=c1cc(N2CCOCC2)oc2c(-c3ccccc3)cccc12` [LY 294002], in [2], the viability at 24 h was greater than 90%.

Turning to `Cc1cc(C(C)Nc2ccccc2)c2nc(N3CCOCC3)cc(=O)n2c1` (stereo not drawn) [TGX-221], the “decrement in cellular viability” value in the series with LC-1/SQSF cells [3] is on record as “mirrored the effect on NRF2 activity”. In addition, in the series on LC-1/SQSF cells [6], the viability is on record as greater than 90%.
